The text below walks through data of ChEMBL document CHEMBL1131955, “Solid-phase synthesis of novel inhibitors of farnesyl transferase” (Bioorg Med Chem Lett, 1999).

The target of assay [1] is Protein farnesyltransferase (Rattus norvegicus, UniProt Q02293+Q04631). In words: In vitro inhibition of rat brain cytosol farnesyl transferase.
Assay [2] concerns the target geranylgeranyltransferase type-I (Rattus norvegicus, UniProt P53610+Q04631). Nature of the assay: In vitro inhibition of rat brain cytosol Geranylgeranyl transferase type I.

Turning to `CC(C)=CCC/C(C)=C/CC/C(C)=C/COc1c(F)c(O)c([N+](=O)[O-])c(F)c1F`, the concentration for half-maximal inhibition (IC50) in assay [1] was 6.3 µM; in assay [2] it was 12.5 µM.
For `C=C(C)C1CC=C(COc2c(F)c(O)c([N+](=O)[O-])c(F)c2F)CC1` (centres undefined), the IC50 came out at 120 µM in assay [1] and 85 µM in assay [2].
In the same order, the values of `O=[N+]([O-])c1c(O)c(F)c(OCc2ccc(-c3ccccc3)cc2)c(F)c1F` are 200 µM and > 200 µM.
In the same order, the values of `O=[N+]([O-])c1c(O)c(F)c(OCc2ccccc2)c(F)c1F` are > 200 µM and 58 µM.
In the same order, the values of `CCCCCCCCCCCCOc1c(F)c(O)c([N+](=O)[O-])c(F)c1F` are > 100 µM and > 100 µM.
For `O=[N+]([O-])c1c(O)c(F)c(OCc2ccc3ccccc3c2)c(F)c1F`, the IC50 is 200 µM in assay [1] and > 200 µM in assay [2].
On the same counts, the results for `C=CCOc1c(F)c(O)c([N+](=O)[O-])c(F)c1F` are > 200 µM and > 200 µM.

In general, IC50 refers to the concentration that gives 50% inhibition. Low readings indicate higher potency, high ones lower potency.
